What was measured:
[1] = test system: CHO; assay: MTT cytotoxicity assay, CHO; format: cell-based, Chinese hamster; conditions: Cricetulus griseus, MTT, 48 h continuous treatment, non-cancer cell, read-out: IC50 CHO
Description: (§1) All cells were grown into mycoplasma free condition. […] All cells were grown up to 75-85% confluency after which cells were trypsinized, counted and seeded, in 96-well plates for cell viability studies, 6-well plates for apoptosis studies, 60 mm dish for cell cycle studies and in 25 cm^2 or 75 cm^2 tissue culture flasks for Western blot studies. The primary stock of the cationic progesterone molecules were made in cell culture grade DMSO and from that secondary stock was prepared by serial dilution with cell culture grade DMSO. The final working concentrations were prepared by diluting the secondary stock in cell culture media keeping the DMSO concentration in working solution below 0.2% with respect to cell culture medium. […] For this assay, 12-18 h before treatment cells were plated in 96-well plate at 5000 cells/well density. […] After completion of the treatment, 10 μL of MTT solution (5 mg/mL) was added in each well and incubated for 4 h. Then the media was removed carefully, and the reduced MTT was dissolved in 1:1 (v/v) DMSO/Methanol and absorbance was measured using multimode reader (Synergy H1, BioTek). Results were represented as percentage of viability={[A550(treated cells)−background]/[A550(untreated cells)−background]}×100. The result was summarized and provided as IC50 table in Table 1.

[2] = test system: COS-1; assay: MTT cytotoxicity assay, COS-1; format: cell-based; conditions: Chlorocebus aethiops, COS-1; MTT, 48 h continuous treatment, non-cancer cell; read-out: IC50 COS-1
Description: as §1

[3] = test system: MDA-MB-231; assay: MTT cytotoxicity assay, MDA-MB-231; format: cell-based, human; conditions: Homo sapiens, MDA-MB-231; MTT, 48 h continuous treatment; read-out: IC50 MDA-MB-231
Description: as §1

[4] = test system: OVCAR-3; assay: MTT cytotoxicity assay, OVCAR-3; format: cell-based; conditions: Homo sapiens, OVCAR-3; MTT, 48 h continuous treatment; read-out: IC50 OVCAR-3
Description: as §1

[5] = test system: NIH-3T3; assay: MTT cytotoxicity assay, NIH-3T3; format: cell-based, murine; conditions: Mus musculus, NIH3T3; MTT, 48 h continuous treatment, non-cancer cell; read-out: IC50 NIH-3T3
Description: as §1

[6] = test system: T47D; assay: MTT cytotoxicity assay, T47D; format: cell-based; conditions: Homo sapiens, MTT, 48 h continuous treatment, read-out: IC50 T47D
Description: as §1

[7] = test system: B16F10; assay: MTT cytotoxicity assay, B16F10; format: cell-based, murine; conditions: Mus musculus, B16-F10; MTT, 48 h continuous treatment; read-out: IC50 B16F10
Description: as §1

[8] = test system: non-cancer cells CHO, COS-1 and NIH-3T3; assay: MTT viability, tested non-cancer cells (combination treatment study, FIG. 1B); format: cell-based; conditions: 48 h, 2.5 μM-40 μM
Description: FIG. 1B: The viability studies of non-cancer cells CHO, COS-1 and NIIH-3T3 after 48 h of continuous treatment with compound 1 (10 μM), 10C [cationic lipid control molecule not containing progesterone moiety]
(§2) Cytotoxicity assay of the different compounds were carried out by using 3-(4,5-dimethylthiazol-2-yl)-2,5-diphenyltetrazolium bromide (MTT). For this assay, 12-18 h before treatment cells were plated in 96-well plate at 5000 cells/well density. After incubation cells were treated continuously for 48 h with respective compounds at different concentration (2.5 μM-40 μM). After completion of the treatment, 10 μL of MTT solution (5 mg/mL) was added in each well and incubated for 4 h. Then the media was removed carefully, and the reduced MTT was dissolved in 1:1 (v/v) DMSO/Methanol and absorbance was measured using multimode reader (Synergy H1, BioTek). Results were represented as percentage of viability={[A550(treated cells)−background]/[A550(untreated cells)−background]}×100. The result was summarized and provided as IC50 table in Table 1.
(§3) For combination treatment effect, cells were plated in 96 well plates at 5000 cells/well. […] Following 48 h of treatment cell viability was measured following above mentioned MTT study.

[9] = test system: cancer cells T47D, OVCAR-3, MDA-MB-231, MCF-7 and B16F10; assay: MTT viability, all tested cancer cells (combination treatment study, FIG. 1A); format: cell-based; conditions: 48 h, 2.5 μM-40 μM
Description: FIG. 1A: The viability studies of cancer cells T47D, OVCAR-3, MDA-MB-231, MCF-7 and B16F10 after 48 h of continuous treatment with compound 1 (10 μM), 10C [cationic lipid control molecule not containing progesterone moiety]
as §2, §3

[10] = test system: MCF7; assay: MTT cytotoxicity assay, MCF7; format: cell-based; conditions: Homo sapiens, MCF7; MTT, 48 h continuous treatment; read-out: IC50 MCF7
Description: as §1

CCCCCCCC[N+](C)(CCCCCCCC)CCNC(=O)CCC(=O)O[C@@H](C)[C@H]1CCC2C3CCC4=CC(=O)CC[C@]4(C)C3CC[C@@]21C.[Cl-] (stereo partly drawn) [Compound 6b, N-(2-(4-((1S)-1-((10R,13S,17S)-10,13-dimethyl-3-oxo-2,3,6,7,8,9,10,11,12,13,14,15,16,17-tetradecahydro-1H-cyclopenta[a]phenanthren-17-yl)ethoxy)-4-oxobutanamido)ethyl)-N-methyl-N-octyloctan-1-aminium chloride]
IC50 [1]: 17 ± 0.41 µM
IC50 [2]: > 20 µM
IC50 [3]: 8.56 ± 0.52 µM
IC50 [4]: 11.9 ± 0.45 µM
IC50 [5]: > 20 µM
IC50 [6]: 4.07 ± 0.23 µM
IC50 [7]: 9.95 ± 0.32 µM
toxicity towards tested non-cancer cells [8]: largely non-toxic
cell killing in all tested cancer cells [9]: significant amount of cell killing
IC50 [10]: 8.28 ± 0.12 µM

CCCCCCCCCCCCCCCC[N+](C)(CCCCCCCCCCCCCCCC)CCNC(=O)CCC(=O)O[C@@H](C)[C@H]1CCC2C3CCC4=CC(=O)CC[C@]4(C)C3CC[C@@]21C (stereo partly drawn) [Compound 6f, N-(2-(4-((1S)-1-((10R,13S,17S)-10,13-dimethyl-3-oxo-2,3,6,7,8,9,10,11,12,13,14,15,16,17-tetradecahydro-1H-cyclopenta[a]phenanthren-17-yl)ethoxy)-4-oxobutanamido)ethyl)-N-hexadecyl-N-methylhexadecan-1-aminium chloride]
IC50 [1]: > 15 µM
IC50 [2]: > 20 µM
IC50 [3]: > 15 µM
IC50 [4]: > 15 µM
IC50 [5]: > 20 µM
IC50 [6]: > 15 µM
IC50 [7]: > 15 µM
IC50 [10]: > 15 µM

CCCCCCCCCCCCCCCCCC[N+](C)(CCCCCCCCCCCCCCCCCC)CCNC(=O)CCC(=O)O[C@@H](C)[C@H]1CCC2C3CCC4=CC(=O)CC[C@]4(C)C3CC[C@@]21C (stereo partly drawn) [Compound 6g, N-(2-(4-((1S)-1-((10R,13S,17S)-10,13-dimethyl-3-oxo-2,3,6,7,8,9,10,11,12,13,14,15,16,17-tetradecahydro-1H-cyclopenta[a]phenanthren-17-yl)ethoxy)-4-oxobutanamido)ethyl)-N-methyl-N-octadecyloctadecan-1-aminium chloride]
IC50 [1]: > 15 µM
IC50 [2]: > 20 µM
IC50 [3]: > 15 µM
IC50 [4]: > 15 µM
IC50 [5]: > 20 µM
IC50 [6]: > 15 µM
IC50 [7]: > 15 µM
IC50 [10]: > 15 µM

CCCCCCCCCCCC[N+](C)(CCCCCCCCCCCC)CCNC(=O)CCC(=O)O[C@@H](C)[C@H]1CCC2C3CCC4=CC(=O)CC[C@]4(C)C3CC[C@@]21C.[Cl-] (stereo partly drawn) [Compound 6d, N-(2-(4-((1S)-1-((10R,13S,17S)-10,13-dimethyl-3-oxo-2,3,6,7,8,9,10,11,12,13,14,15,16,17-tetradecahydro-1H-cyclopenta[a]phenanthren-17-yl)ethoxy)-4-oxobutanamido)ethyl)-N-dodecyl-N-methyldodecan-1-aminium chloride]
IC50 [1]: 17.5 ± 0.18 µM
IC50 [2]: > 20 µM
IC50 [3]: 6.36 ± 0.19 µM
IC50 [4]: 6.83 ± 0.13 µM
IC50 [5]: > 20 µM
IC50 [6]: 12.8 ± 0.43 µM
IC50 [7]: 9.54 ± 0.18 µM
toxicity towards tested non-cancer cells [8]: largely non-toxic
cell killing in all tested cancer cells [9]: significant amount of cell killing
IC50 [10]: 7.04 ± 0.28 µM

CCCCCC[N+](C)(CCCCCC)CCNC(=O)CCC(=O)O[C@@H](C)[C@H]1CCC2C3CCC4=CC(=O)CC[C@]4(C)C3CC[C@@]21C (stereo partly drawn) [Compound 6a, N-(2-(4-((1S)-1-((10R,13S,17S)-10,13-dimethyl-3-oxo-2,3,6,7,8,9,10,11,12,13,14,15,16,17-tetradecahydro-1H-cyclopenta[a]phenanthren-17-yl)ethoxy)-4-oxobutanamido)ethyl)-N-hexyl-N-methylhexan-1-aminium chloride]
IC50 [1]: 17.9 ± 0.56 µM
IC50 [2]: > 20 µM
IC50 [3]: 5.78 ± 0.38 µM
IC50 [4]: 13.9 ± 0.53 µM
IC50 [5]: > 20 µM
IC50 [6]: 7.43 ± 0.76 µM
IC50 [7]: > 15 µM
IC50 [10]: > 15 µM

CCCCCCCCCCCCCC[N+](C)(CCCCCCCCCCCCCC)CCNC(=O)CCC(=O)O[C@@H](C)[C@H]1CCC2C3CCC4=CC(=O)CC[C@]4(C)C3CC[C@@]21C (stereo partly drawn) [Compound 6e, N-(2-(4-((1S)-1-((10R,13S,17S)-10,13-dimethyl-3-oxo-2,3,6,7,8,9,10,11,12,13,14,15,16,17-tetradecahydro-1H-cyclopenta[a]phenanthren-17-yl)ethoxy)-4-oxobutanamido)ethyl)-N-methyl-N-tetradecyltetradecan-1-aminium chloride]
IC50 [1]: > 15 µM
IC50 [2]: > 20 µM
IC50 [3]: > 15 µM
IC50 [4]: > 15 µM
IC50 [5]: > 20 µM
IC50 [6]: > 15 µM
IC50 [7]: > 15 µM
IC50 [10]: > 15 µM

Source: patent publication US10100079B2, “Progesterone-cationic lipid hybrid as anticancer agent and the process of synthesis thereof” (Council of Scientific & Industrial Research, priority 2016, dated 2018)
